Measured values as given in US20250034136A1 (Nimbus Wadjet, Inc., priority 2023, published 2025).
Like-named read-outs stand apart in the source and are kept apart here.

Legend:
[1] = target: WRN (BV08), human Werner helicase (Uniprot Q14191, amino acids 517-1235 with L1074F point mutation) (Homo sapiens (Human), UniProt Q14191, L1074F); experiment: WRN (BV08) ADP-Glo assay; assay type: biochemical; settings: class symbols A-E, read-out: ADP-Glo_hWRN_IC50
[2] = tested on: p21 induction in HCT116 cells; experiment: p21 induction in HCT116 cells; assay type: cell-based; settings: Homo sapiens, HCT-116, 24 h, read-out: P21_EC50
Procedure, shortened: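 EC50 from non-linear curve fit of p21 immunofluorescence (800 nm), with GAPDH (700 nm) read alongside. DMSO and a reference WRN inhibitor served as low and high controls. Cells (2,000/well) got 11 compound concentrations in duplicate for 24 h at 37 °C.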

[3] = HCT116 cells, 24 h compound incubation

WRN (BV08), human Werner helicase (Uniprot Q14191, amino acids 517-1235 with L1074F point mutation), sequence (Q14191 other isoform, or with tags, fused parts or gaps L1074F (already in the parent)): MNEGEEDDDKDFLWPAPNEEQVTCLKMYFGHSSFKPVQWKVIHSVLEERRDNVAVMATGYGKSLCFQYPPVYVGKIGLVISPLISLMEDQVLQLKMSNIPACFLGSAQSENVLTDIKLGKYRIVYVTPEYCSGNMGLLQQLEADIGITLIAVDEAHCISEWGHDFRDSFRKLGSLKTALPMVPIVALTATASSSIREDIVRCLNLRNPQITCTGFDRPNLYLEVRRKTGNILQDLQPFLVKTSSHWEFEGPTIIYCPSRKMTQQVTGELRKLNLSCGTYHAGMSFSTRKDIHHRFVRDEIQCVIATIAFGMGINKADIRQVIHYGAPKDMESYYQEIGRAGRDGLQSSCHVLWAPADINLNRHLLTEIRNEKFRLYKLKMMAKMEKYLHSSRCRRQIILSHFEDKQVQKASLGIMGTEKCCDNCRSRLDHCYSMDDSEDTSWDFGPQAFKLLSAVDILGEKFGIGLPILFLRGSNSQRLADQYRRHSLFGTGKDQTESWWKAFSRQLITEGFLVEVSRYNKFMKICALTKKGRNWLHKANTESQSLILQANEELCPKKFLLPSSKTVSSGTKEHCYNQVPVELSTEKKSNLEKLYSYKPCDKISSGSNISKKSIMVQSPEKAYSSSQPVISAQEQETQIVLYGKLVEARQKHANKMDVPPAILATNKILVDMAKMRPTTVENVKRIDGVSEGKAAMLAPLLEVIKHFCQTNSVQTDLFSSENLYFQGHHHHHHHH

| Compound | IC50 [1] [nM] | EC50 [2, 3] [nM] | EC50 [2] [nM] |
| --- | --- | --- | --- |
| CCc1c(N2CCN(C(=O)c3ncnc(C)c3O)CC2)c(=O)c2nc(CO)cnc2n1CC(=O)Nc1ccc(C(F)(F)F)cc1Cl [I-25, N-(2-chloro-4-(trifluoromethyl)phenyl)-2-(6-ethyl-7-(4-(5-hydroxy-6-methylpyrimidine-4-carbonyl)piperazin-1-yl)-2-(hydroxymethyl)-8-oxopyrido[2,3-b]pyrazin-5(8H)-yl)acetamide] | 50 to 100 | > 5000 |  |
| CCc1c(N2CCN(C(=O)c3ncnc(C)c3O)CC2)c(=O)c2nc(OC(F)F)cnc2n1CC(=O)Nc1ccc(C(F)(F)F)cc1Cl [I-26, N-(2-chloro-4-(trifluoromethyl)phenyl)-2-(2-(difluoromethoxy)-6-ethyl-7-(4-(5-hydroxy-6-methylpyrimidine-4-carbonyl)piperazin-1-yl)-8-oxopyrido[2,3-b]pyrazin-5(8H)-yl)acetamide] | 100 to 500 | > 5000 |  |
| CCc1c(N2CCN(C(=O)c3ncnc(C)c3O)CC2)c(=O)c2nc(N(C)C)c(C)nc2n1CC(=O)Nc1ccc(C(F)(F)F)cc1Cl [I-29, N-(2-chloro-4-(trifluoromethyl)phenyl)-2-(2-(dimethylamino)-6-ethyl-7-(4-(5-hydroxy-6-methylpyrimidine-4-carbonyl)piperazin-1-yl)-3-methyl-8-oxopyrido[2,3-b]pyrazin-5(8H)-yl)acetamide] | 5 to 50 |  | 500 to 2000 |
| CCc1c(N2CCN(C(=O)c3ncnc(C)c3O)CC2)c(=O)c2nc(N(C)C(C)=O)cnc2n1CC(=O)Nc1ccc(C(F)(F)F)cc1Cl [I-30, N-(2-chloro-4-(trifluoromethyl)phenyl)-2-(6-ethyl-7-(4-(5-hydroxy-6-methylpyrimidine-4-carbonyl)piperazin-1-yl)-2-(N-methylacetamido)-8-oxopyrido[2,3-b]pyrazin-5(8H)-yl)acetamide] | 50 to 100 | > 5000 |  |
| CCc1c(N2CCN(C(=O)c3[nH]nc(C)c3O)CC2)c(=O)c2ncc(C)nc2n1CC(=O)Nc1ccc(C(F)(F)F)cc1Cl [I-32, N-(2-chloro-4-(trifluoromethyl)phenyl)-2-(6-ethyl-7-(4-(4-hydroxy-3-methyl-1H-pyrazole-5-carbonyl)piperazin-1-yl)-3-methyl-8-oxopyrido[2,3-b]pyrazin-5(8H)-yl)acetamide] | 50 to 100 | > 5000 |  |
| CCc1c(N2CCN(C(=O)c3ncnc(C)c3O)CC2)c(=O)c2nc(/C=C3/CCOC3)cnc2n1CC(=O)Nc1ccc(C(F)(F)F)cc1Cl [I-35, N-(2-chloro-4-(trifluoromethyl)phenyl)-2-(2-((dihydrofuran-3(2H)-ylidene)methyl)-6-ethyl-7-(4-(5-hydroxy-6-methylpyrimidine-4-carbonyl)piperazin-1-yl)-8-oxopyrido[2,3-b]pyrazin-5(8H)-yl)acetamide] | 5 to 50 | 2000 to 5000 |  |
| CCc1c(N2CCN(C(=O)c3ncnc(C)c3O)CC2)c(=O)c2nc(C=C3CCOCC3)cnc2n1CC(=O)Nc1ccc(C(F)(F)F)cc1Cl [I-36, N-(2-chloro-4-(trifluoromethyl)phenyl)-2-(6-ethyl-7-(4-(5-hydroxy-6-methylpyrimidine-4-carbonyl)piperazin-1-yl)-8-oxo-2-((tetrahydro-4H-pyran-4-ylidene)methyl)pyrido[2,3-b]pyrazin-5(8H)-yl)acetamide] | 5 to 50 | 2000 to 5000 |  |
| CCc1c(N2CCN(C(=O)c3ncnc(C)c3O)CC2)c(=O)c2nc(CCO)cnc2n1CC(=O)Nc1ccc(C(F)(F)F)cc1Cl [I-41, N-(2-chloro-4-(trifluoromethyl)phenyl)-2-(6-ethyl-7-(4-(5-hydroxy-6-methylpyrimidine-4-carbonyl)piperazin-1-yl)-2-(2-hydroxyethyl)-8-oxopyrido[2,3-b]pyrazin-5(8H)-yl)acetamide] | 100 to 500 | > 5000 |  |
| CCc1c(N2CCN(C(=O)c3ncnc(C)c3O)CC2)c(=O)c2nc(N3CCCCC3)cnc2n1CC(=O)Nc1ccc(C(F)(F)F)cc1Cl [I-42, N-(2-chloro-4-(trifluoromethyl)phenyl)-2-(6-ethyl-7-(4-(5-hydroxy-6-methylpyrimidine-4-carbonyl)piperazin-1-yl)-8-oxo-2-(piperidin-1-yl)pyrido[2,3-b]pyrazin-5(8H)-yl)acetamide] | 5 to 50 | 2000 to 5000 |  |

Continued, in another order:

| IC50 [1] [nM] | EC50 [2, 3] [nM] | Compound | EC50 [2] [nM] |
| --- | --- | --- | --- |
| 5 to 50 | > 5000 | CCc1c(N2CCN(C(=O)c3ncnc(C)c3O)CC2)c(=O)c2nc(O)cnc2n1CC(=O)Nc1ccc(C(F)(F)F)cc1Cl [I-24, N-(2-chloro-4-(trifluoromethyl)phenyl)-2-(6-ethyl-2-hydroxy-7-(4-(5-hydroxy-6-methylpyrimidine-4-carbonyl)piperazin-1-yl)-8-oxopyrido[2,3-b]pyrazin-5(8H)-yl)acetamide] |  |
| 5 to 50 | > 5000 | CCc1c(N2CCN(C(=O)c3ncnc(C)c3O)CC2)c(=O)c2nc(N3CCCC3=O)cnc2n1CC(=O)Nc1ccc(C(F)(F)F)cc1Cl [I-27, N-(2-chloro-4-(trifluoromethyl)phenyl)-2-(6-ethyl-7-(4-(5-hydroxy-6-methylpyrimidine-4-carbonyl)piperazin-1-yl)-8-oxo-2-(2-oxopyrrolidin-1-yl)pyrido[2,3-b]pyrazin-5(8H)-yl)acetamide] |  |
| 5 to 50 | > 5000 | CCc1c(N2CCN(C(=O)c3ncnc(C)c3O)CC2)c(=O)c2nc(C(F)F)c(C)nc2n1CC(=O)Nc1ccc(C(F)(F)F)cc1Cl [I-28, N-(2-chloro-4-(trifluoromethyl)phenyl)-2-(2-(difluoromethyl)-6-ethyl-7-(4-(5-hydroxy-6-methylpyrimidine-4-carbonyl)piperazin-1-yl)-3-methyl-8-oxopyrido[2,3-b]pyrazin-5(8H)-yl)acetamide] |  |
| 5 to 50 | > 5000 | CCc1c(N2CCN(C(=O)c3ncnc(C)c3O)CC2)c(=O)c2nc(NC(C)=O)cnc2n1CC(=O)Nc1ccc(C(F)(F)F)cc1Cl [I-31, 2-(2-acetamido-6-ethyl-7-(4-(5-hydroxy-6-methylpyrimidine-4-carbonyl)piperazin-1-yl)-8-oxopyrido[2,3-b]pyrazin-5(8H)-yl)-N-(2-chloro-4-(trifluoromethyl)phenyl)acetamide] |  |
| 5 to 50 | > 5000 | CCc1c(N2CCN(C(=O)c3ccc4cn[nH]c4c3O)CC2)c(=O)c2ncc(C)nc2n1CC(=O)Nc1ccc(C(F)(F)F)cc1Cl [I-33, N-(2-chloro-4-(trifluoromethyl)phenyl)-2-(6-ethyl-7-(4-(7-hydroxy-1H-indazole-6-carbonyl)piperazin-1-yl)-3-methyl-8-oxopyrido[2,3-b]pyrazin-5(8H)-yl)acetamide] |  |
| ≤ 5 | < 500 | CCc1c(N2CCN(C(=O)c3ncnc(C)c3O)CC2)c(=O)c2nc(C=C(C)C)cnc2n1CC(=O)Nc1ccc(C(F)(F)F)cc1Cl [I-37, N-(2-chloro-4-(trifluoromethyl)phenyl)-2-(6-ethyl-7-(4-(5-hydroxy-6-methylpyrimidine-4-carbonyl)piperazin-1-yl)-2-(2-methylprop-1-en-1-yl)-8-oxopyrido[2,3-b]pyrazin-5(8H)-yl)acetamide] |  |
| ≤ 5 | < 500 | CCc1c(N2CCN(C(=O)c3ncnc(C)c3O)CC2)c(=O)c2nc(C=C3CCC3)cnc2n1CC(=O)Nc1ccc(C(F)(F)F)cc1Cl [I-38, N-(2-chloro-4-(trifluoromethyl)phenyl)-2-(2-(cyclobutylidenemethyl)-6-ethyl-7-(4-(5-hydroxy-6-methylpyrimidine-4-carbonyl)piperazin-1-yl)-8-oxopyrido[2,3-b]pyrazin-5(8H)-yl)acetamide] |  |
